In patent publication US20080233132A1, “MULTIPLE SCLEROSIS THERAPY” (priority 2006, published 2008):

What was measured:
[1] = molecular target: T1, γ-secretase (Homo sapiens, UniProt P49768); settings: displacement assay; cited from earlier work
[2] = test system: CD4+ T cells; assay: cell-culture assay of T cell proliferation and Th1 differentiation; type: cell-based
[3] = test system: EAE animals; assay: LY411575 injected into EAE animals; type: in vivo
Experimental: When LY411575 was injected into EAE animals, the severity of EAE was decreased.

[4] = test system: T cells; settings: Minter et al. 2005; cited from earlier work
[5] = test system: EAE; settings: injected prior to disease onset; Minter et al. 2005; cited from earlier work
[6] = molecular target: T1, γ-secretase; settings: recombinant APP C100 substrate; Takahashi et al. 2003; cited from earlier work
[7] = test system: aged rats; settings: total dose infused i.v.=1 ug, Fischer et al. 1987; cited from earlier work
[8] = test system: EAE; settings: Sanna et al. 2006; cited from earlier work
[9] = test system: MS patients; settings: some, but not all, onsets approximately six months following the onset of therapy; cited from earlier work

Which “competition for the γ-secretase active site” value [1] does the source give for `C[C@H](NC(=O)Cc1cc(F)cc(F)c1)C(=O)N[C@H](C(=O)OC(C)(C)C)c1ccccc1` [DAPT] here?
Its value is “compete moderately”.

What does the source list for `C[C@H](NC(=O)[C@@H](O)c1cc(F)cc(F)c1)C(=O)N[C@@H]1C(=O)N(C)c2ccccc2-c2ccccc21` [LY411575]?
amount of T cell differentiation of the inflammatory Th1 subset of CD4+ T cells [2]: decreased; effect on T cell proliferation [2]: no observed effect; severity of EAE [3]: decreased; Th1 differentiation in vitro [4]: decreased; effect on T cell proliferation [4]: no effect; severity of EAE [5]: lessened

For `CSc1ccc(/C=C2/C(C)=C(CC(=O)O)c3cc(F)ccc32)cc1` [sulindac sulfide], which γ-secretase activity [6] is on record?
Its γ-secretase activity is “preferentially inhibits”.

Which “cholinergic neuron atrophy and spatial memory impairment” value [7] does the source give for NGF: nerve growth factor here?
The value was “ameliorate”.

For glatiramer acetate [GA], which “progression of EAE” value [8] is on record?
Its value is “block progression”.

What about the clinical relapses [9] of the same compound?
The clinical relapses was “modest reduction”.
